Tested on: not listed separately
Experiment: Human liver S9 fraction stability assay
Assay type: in vitro ADME
Conditions: pH 7.4, human liver S9, 1 μM test compound, 2 mg/mL protein, 1 mM NADPH, 37° C., read-out: Liver S9 fraction stability, t1/2
Method: Compounds can be assessed for metabolic stability in human skin by assessing their rate of disappearance from human S9 skin fraction. Similarly, compounds can be assessed for metabolic stability in human liver by assessing their rate of disappearance from human S9 liver fraction. The protocol below is used to assess the difference between skin and hepatic metabolism.
The assay was carried out in 96-well microtiter plates at 37° C. Reaction mixtures (25 μL) contained a final concentration of 1 μM test compound, 2 mg/mL liver or skin protein, and 1 mM NADPH in buffer (100 mM potassium phosphate, pH 7.4 buffer with 1 mM EDTA, 3 mM MgCl2). At each of the time points (0, 15, 30, and 60 minutes), 150 μL of quench solution (100% acetonitrile with 0.1% formic acid) with internal standard was transferred to each well. Besides the zero minute controls, mixtures containing the same components except the NADPH were also prepared as the negative control. Verapamil or testosterone was included as a positive control to verify assay performance. Plates were sealed and centrifuged at 4° C. for 15 minutes at 4000 rpm. The supernatant was transferred to fresh plates for LC/MS/MS analysis.
All samples were analyzed on LC/MS/MS using an AB Sciex API 4000 instrument, coupled to a Shimadzu LC-20AD LC Pump system. Analytical samples were separated using a Waters Atlantis T3 dC18 reverse phase HPLC column (20 mm×2.1 mm) at a flow rate of 0.5 mL/min. The mobile phase consisted of 0.1% formic acid in water (solvent A) and 0.1% formic acid in 100% acetonitrile (solvent B).
The extent of metabolism was calculated as the disappearance of the test compound, compared to the 0-min control reaction incubations. Initial rates were calculated for the compound concentration and used to determine t1/2 values and subsequently, the intrinsic clearance, CLint=(0.693) (1/t1/2 (min)) (mL incubation/mg of S9 protein).
Table 4 lists t1/2 values for the above liver S9 stability assay. […]

SMILES	half-life at 1 μM
O=c1c2c(Nc3ccc(I)cc3F)cncc2ccn1OCCO [Compound 1.007, 8-(2-Fluoro-4-iodophenylamino)-2-(2-hydroxyethoxy)-2,6-naphthyridin-1(2H)-one]	50 to 200 min
O=C1c2c(cncc2Nc2ccc(I)cc2F)CCN1OCCO [Compound 1.010, 8-(2-Fluoro-4-iodophenylamino)-2-(2-hydroxyethoxy)-3,4-dihydro-2,6-naphthyridin-1(2H)-one]	50 to 200 min
O=C1NCCc2cncc(Nc3ccc(I)cc3F)c21 [Compound 1.012, 8-((2-Fluoro-4-iodophenyl)amino)-3,4-dihydro-2,6-naphthyridin-1(2H)-one]	≤ 50 min

Target: MEK1 (Homo sapiens (Human), UniProt Q02750)
Experiment: MEK1 inhibition assay (Z'-LYTE biochemical assay)
Conditions: MAP2K1 (MEK1)/inactive MAPK1 (ERK2)/Ser/Thr 03 cascade, 10 point titration; read-out: IC50 against MEK1
Method: MEK1 inhibitory activity of compounds were tested using the following procedure (protocol available at thermofisher.com/content/dam/LifeTech/migration/files/drug-discovery/pdfs.par.60256.file.dat/20130430%20ssbk%20customer%20protocol%20and%20assay%20conditions.pdf). The Z′-LYTE biochemical assay (ThermoFisher) employs a fluorescence-based, coupled-enzyme format and is based on the differential sensitivity of phosphorylated and non-phosphorylated peptides to proteolytic cleavage.
Test compounds in 100% DMSO were screened in 1% DMSO (final) in the well. For 10 point titrations, 3-fold serial dilutions are conducted from the starting concentration of 30 μM.
After the 1 hour incubation, 5 μL of a 1:1024 dilution of Development Reagent A (available from Invitrogen, catalog no. PV3295) was added.
ATP solutions were diluted to a 4× working concentration in Kinase Buffer (50 mM HEPES pH 7.5, 0.01% BRIJ-35, 10 mM MgCl2, 1 mM EGTA). ATP Km apparent was previously determined using a Z′-LYTE assay. The Development Reagent was diluted in Development Buffer (available from Invitrogen, catalog no. P3127).
Assay Protocol: 2.5 μL of 4× test compound or 100 nL of 100× Test Compound plus 2.4 μL Kinase Buffer, 5 μL of the 2× Peptide/Kinase Mixture, 2.5 μL of 4×ATP Solution were added to the plates and placed on a shake plate for 30-seconds. The kinase reaction was allowed to proceed for 60-minute at room temperature, before 5 μL of Development Reagent Solution was added, and the mixture agitated for 30-seconds on a shake plate. The mixture was incubated for 60-minute at room temperature. Fluorescence was measured using a plate reader and the data were analyzed.
This control yielded 100% cleaved peptide in the Development Reaction. The 100% Phosphorylation Control, which consisted of a synthetically phosphorylated peptide of the same sequence as the peptide substrate, was designed to allow for the calculation of percent phosphorylation. This control yielded a very low percentage of cleaved peptide in the Development Reaction. The 0% Phosphorylation and 100% Phosphorylation Controls allow for the calculation of the percent phosphorylation achieved in a specific reaction well.
The minimum emission ratio in a screen was established by the 0% Inhibition Control, which contained active kinase. This control was designed to produce a 10-50% phosphorylated peptide in the Kinase Reaction. […]
A known inhibitor control standard curve, 10 point titration, was run for each individual kinase on the same plate as the kinase to ensure the kinase was inhibited within an expected IC50 range previously determined.
The following controls are prepared for each concentration of Test Compound assayed. […] The expected value for a non-fluorescence compound should be 0%. […]
The data in Table A was calculated. […]

Sequence of MEK1 (Q02750 whole entry): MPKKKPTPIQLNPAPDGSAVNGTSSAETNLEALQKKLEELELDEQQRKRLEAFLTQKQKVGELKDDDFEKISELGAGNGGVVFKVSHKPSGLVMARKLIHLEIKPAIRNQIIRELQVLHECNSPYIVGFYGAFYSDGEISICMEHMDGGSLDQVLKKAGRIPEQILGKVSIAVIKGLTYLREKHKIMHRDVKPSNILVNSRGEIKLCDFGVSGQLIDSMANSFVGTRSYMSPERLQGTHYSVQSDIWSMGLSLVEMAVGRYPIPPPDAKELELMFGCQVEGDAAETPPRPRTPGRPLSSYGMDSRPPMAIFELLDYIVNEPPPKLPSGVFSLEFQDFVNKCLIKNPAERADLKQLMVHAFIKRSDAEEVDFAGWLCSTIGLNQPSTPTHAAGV

SMILES	IC50
O=c1c2c(Nc3ccc(I)cc3F)cncc2ccn1C[C@@H](O)CO [Compound 1.001, (R)-2-(2,3-Dihydroxypropyl)-8-(2-fluoro-4-iodophenylamino)-2,6-naphthyridin-1(2H)-one]	≤ 150 nM
O=c1c2c(Nc3ccc(I)cc3F)cncc2ccn1C[C@H](O)CO [Compound 1.002, (S)-2-(2,3-Dihydroxypropyl)-8-(2-fluoro-4-iodophenylamino)-2,6-naphthyridin-1(2H)-one]	≤ 150 nM
O=C(O)Cn1ccc2cncc(Nc3ccc(I)cc3F)c2c1=O [Compound 1.004, 2-(8-(2-Fluoro-4-iodophenylamino)-1-oxo-2,6-naphthyridin-2(1H)-yl)acetic acid]	> 1500 nM
COC(=O)Cn1ccc2cncc(Nc3ccc(I)cc3F)c2c1=O [Compound 1.005, Methyl 2-(8-(2-fluoro-4-iodophenylamino)-1-oxo-2,6-naphthyridin-2(1H)-yl)acetate]	> 1500 nM

— patent publication US12378240B2, “Naphthyridinone-aniline compounds for treatment of dermal disorders” (NFlection Therapeutics, Inc., priority 2018, dated 2025)
